Patent US4992470A, “Method of enhancing immune response of mammals” (Iowa State University Research Foundation, Inc., priority 1990, dated 1991)

Key:
isolated lymphocytes = test: HMB effects on lymphocyte function in lambs (ex vivo mitogen-stimulated blastogenesis after feeding)
Experimental: Animals and Experimental Design. Three sets of twin lambs were housed individually in fiberglass pens. Animals were randomly assigned to control or HMB diets, using a standard basal diet with and without 0.05% HMB.
Blood Sampling and Lymphocyte Preparation. In the first experiment, animals were bled for lymphocyte blastogenesis assays and T-cell subset analysis 38, 45, and 52 days after dietary treatments began. Blood (50 ml) was collected, aseptically, via jugular venepuncture into 10 ml acid-citrate-dextrose anticoagulant (44 g trisodium citrate, 16 g citric acid and 50 g dextrose per 1 of triple-distilled water). Blood was centrifuged, the buffy coat removed, and 1 volume of buffy coat was diluted with 0.5 volume of plasma which was added to 2 volumes of Sepracell-MN (Sepratech Corporation, Oklahoma City, Okla.). After further centrifugation at 1500 x g for 25 min, the mononuclear layer was removed and washed twice with Hanks' balanced salt solution (HBSS; Gibco, Grand Island, N.Y.) by centrifuging at 150 x g for 15 min. The remaining white blood cells were resuspended in HBSS, and the total number of white blood cells was determined by using an automated cell counter (Coulter Electronics, Hialeah, Fla.). The concentration of the cells was adjusted to 1×20^6 " cells/ml with HBSS.
Lymphocyte Blastogenesis Determinations. Blastogenesis assays were performed on isolated lymphocytes by using a 3-d culture procedure as described previously. Briefly, isolated lymphocytes were cultured in microtiter plates with 2×10^5 " cells in 0.15 ml of culture medium/well. Culture medium consisted of RPMI media-1640 (Gibco, Grand Island, N.Y.) containing 15% heat-inactivated fetal bovine serum and 1% antibiotic-antimycotic solution (Gibco, Grand Island, N.Y.). Unstimulated and mitogen-stimulated cultures were assayed in triplicate. Mitogens used were phytohemagglutinin-P (PHA), concanavalin A (ConA) and pokeweed mitogen (PWM). PHA was purchased from Difco Laboratories, Detroit, MI; ConA from Miles Laboratories, Elkhart, IN; and PWM from Gibco, New York, N.Y. Microtiter plates were incubated at 37° C. in a humidified 5% CO2 atmosphere. After 48 h, 0.25 uCi of ^3 H-thymidine (New England Nuclear, Boston, Mass.) was added to each well. Eighteen hours later, the cultures were harvested onto glass-fiber filters with an automated sample harvester (Flow Laboratories, Rockville, Mo.), filters were placed in 10 ml CytoScint scintillation solution (ICN Biomedicals, Irvine, CA), and radioactivity was counted in a liquid scintillation counter. This procedure is similar to that described by Kuhlman, et al., J. Nutr., 118:1564-1569.

[1] = system: sheep red blood cells (SRBC); test: Pigs: antibody titers against sheep red blood cells (agglutination assay); type: in vivo; conditions: HMB-fed pigs; control 11.6; * p < .05
Source text: (§1) Twelve specific pathogen free (SPF) pigs 4-5 weeks of age were distributed into two groups, each being blocked by gender and litter. All pigs were fed approximately 4% of their body weight of a commercially purchased starter ration. Pigs were penned individually and allowed free access to water.
(§2) Diets were supplemented with one of two dietary treatments: Control (limestone)(n=6) and HMB (n=6). Dietary treatments were fed at 0.05% of the body weight. HMB was synthesized by the method of Example 1. One week later, pigs were injected with 5 ml/30 kg body weight of a 20% suspension of sheep red blood cells (SRBC) subcutaneously.
(§3) Fourteen days post dietary treatments, all pigs were challenged via intratracheal inoculation with 5 ml of a ground lung suspension. The suspension was derived from pig pneumonic tissue obtained from a pig experimentally inoculated with Mycoplasma hyopneumoniae. […] Titers to Mycoplasma hyopneumoniae were determined using a serum complement fixation assay. At necropsy, the extent of macroscopic pneumonia lesions was recorded and samples from all pigs were submitted for histopathology to assay microscopic lesions. Lung and bronchi samples were cultured and evaluated for the presence of Mycoplasma species (i.e., M. hyorhinis, M. hyosynoviae, and M. hyopneumoniae) and other easily isolated bacteria (i.e., bordetella, pasteurella, and hemophilus).

Mycoplasma hyopneumoniae = test: Pigs infected with Mycoplasma: lung lesions, lung fluorescent antibodies, antibody titers; type: in vivo
Source text: as §1, §2
Fourteen days post dietary treatments, all pigs were challenged via intratracheal inoculation with 5 ml of a ground lung suspension. The suspension was derived from pig pneumonic tissue obtained from a pig experimentally inoculated with Mycoplasma hyopneumoniae. Blood samples were collected once a week for the evaluation of antibodies produced in response to the SRBC and Mycoplasma hyopneumoniae antigenic stimuli. An agglutination assay was used to determine antibody titers produced against SRBC. Titers to Mycoplasma hyopneumoniae were determined using a serum complement fixation assay. At necropsy, the extent of macroscopic pneumonia lesions was recorded and samples from all pigs were submitted for histopathology to assay microscopic lesions. Lung and bronchi samples were cultured and evaluated for the presence of Mycoplasma species (i.e., M. hyorhinis, M. hyosynoviae, and M. hyopneumoniae) and other easily isolated bacteria (i.e., bordetella, pasteurella, and hemophilus).

[2] = Pigs: organ weights at necropsy; type: in vivo; conditions: HMB-fed pigs
Source text: as §1, §2
(§4) The iliac lymph nodes, liver, spleen, and gastrocnemius muscle were removed from the carcass and weighed. The nasal cavity was examined for evidence of Bordetella broncheseptica infection that will result in nasal turbinate degeneration. Nasal degeneration was scored as to severity with 0 indicating no lesions and the highest score, 3, corresponding to […] degeneration.

[3] = Stability of HMB (and KIC) in the rumen: incubation in diluted rumen fluid; type: in vitro ADME, steer; conditions: as far as is known; general statement, oral administration to ruminants
[4] = system: Mycoplasma species and other easily isolated bacteria; test: Pigs: bacteria cultured from bronchi; type: in vivo; conditions: HMB-fed pigs
Source text: as §1, §2, §3

[5] = system: Bordetella broncheseptica; test: Pigs: nasal degeneration scores; type: in vivo; conditions: HMB-fed pigs
Source text: as §1, §2, §4

T lymphocytes = test: Activation of immune function of T lymphocytes, HMB compared with KIC; parameters: species or system mammals
lymphocytes = test: In vitro effects of leucine or leucine metabolites on PHA-stimulated lymphocyte blastogenesis (3H-thymidine incorporation); type: cell-based, bovine; conditions: Bos taurus, Lymphocyte, 72 h; final concentration 1 mM; PHA stimulated; read-out: % Change from No Additive, in vitro lymphocyte blastogenesis (Mean Percent Change, SEM)
Experimental: Lymphocyte Blastogenesis Determinations. Blood collections, lymphocyte isolation and blastogenesis assays were performed on isolated bovine cells by using a 3-d culture procedure as described previously in Kuhlman, et al. (1988), J. Nutr., 118:1564-1569.
Isolated lymphocytes were exposed to 1 and 10 mM Leu and KIC and the metabolites isovalarate, β-hydroxy-β-methyl butyrate (HMB), β-hydroxy-β-methyl glutarate, butyrate, acetate, acetone, acetoacetate, and β-hydroxy butyrate (BOHB). The cells were then stimulated with the mitogen phytohemagglutinin, and incorporation of ^3 H-thymidine into the DNA of the dividing lymphocytes was measured.
Leucine and Leucine Metabolites. Most of the compounds listed in Table B were purchased from Sigma Chemical Company, St. Louis, MO. KIC was purchased from SOBAC (Paris, France), HMB was synthesized as described in Example 1, and the calcium salt of HMB was purified by crystallization in 95% ethanol. The calcium salt was converted to a sodium salt form and used in subsequent assays. The pH of all compounds was adjusted to approximately 7.3. Compounds were passed through a 0.2-um filter assembly to assure sterility.

[6] = Before Treatment (baseline of HMB group)

CC(C)(O)CC(=O)O [HMB, β-hydroxy-β-methyl butyric acid]
Decays Per Min of 3H Thymidine Incorporated into Isolated Lymphocytes, PHA Stimulation (isolated lymphocytes; After Treatment, diet with 0.05% HMB, control 15,000): 18,000 Decays Per Min | Decays Per Min of 3H Thymidine Incorporated into Isolated Lymphocytes, PWM Stimulation (isolated lymphocytes; After Treatment, diet with 0.05% HMB, control 18,000): 25,000 Decays Per Min | Decays Per Min of 3H Thymidine Incorporated into Isolated Lymphocytes, ConA Stimulation (isolated lymphocytes; After Treatment, diet with 0.05% HMB, control 19,000): 21,000 Decays Per Min | Decays Per Min of 3H Thymidine Incorporated into Isolated Lymphocytes, ConA Stimulation (isolated lymphocytes; [6]): 41,000 Decays Per Min | Decays Per Min of 3H Thymidine Incorporated into Isolated Lymphocytes, PHA Stimulation (isolated lymphocytes; [6]): 23,000 Decays Per Min | Decays Per Min of 3H Thymidine Incorporated into Isolated Lymphocytes, PWM Stimulation (isolated lymphocytes; [6]): 21,000 Decays Per Min | Change in 3H Thymidine incorporation, PWM Stimulation (isolated lymphocytes; after minus before treatment, change in control -14,000): +4,000 Decays Per Min | Change in 3H Thymidine incorporation, PHA Stimulation (isolated lymphocytes; after minus before treatment, change in control -22,000): -5,000 Decays Per Min | Change in 3H Thymidine incorporation, ConA Stimulation (isolated lymphocytes; after minus before treatment, change in control -29,000): -20,000 Decays Per Min | Effect on decline in lymphocyte function (in words) (isolated lymphocytes; lambs, 0.05% HMB diet): tended to effect the decline in lymphocyte function | Red blood cell titers (dilution) day 10-15 [1]: 15.5 dilution | M. hyopneumoniae colonies by fluorescent antibody technique (in words) (Mycoplasma hyopneumoniae; HMB-fed pigs): decreased | Prevention of Mycoplasmal lung damage (in words) (Mycoplasma hyopneumoniae; HMB-fed pigs infected with M. hyopneumoniae): can prevent some of the lung damage associated with a Mycoplasmal lung agent | Lung or bronchi evaluations (in words) (Mycoplasma hyopneumoniae; HMB-fed pigs vs control): no significant differences were seen in the lung or bronchi evaluations | M. hyopneumoniae antibody titers (in words) (Mycoplasma hyopneumoniae; HMB-fed pigs vs control): no significant differences | Lung fluorescent antibodies to M. hyopneumoniae (Mycoplasma hyopneumoniae; HMB-fed pigs, control 12.6): 10.3 | % lung showing lesions (Mycoplasma hyopneumoniae; HMB-fed pigs, control 18.7): 13.7% | M. hyopneumoniae peak titers (Mycoplasma hyopneumoniae; HMB-fed pigs, serum complement fixation, control 7.1): 6.7 | Extent of mycoplasmal lung infection (in words) (Mycoplasma hyopneumoniae; vs KIC-fed or control animals, not statistically significant): lesser extent of mycoplasmal lung infection than did KIC-fed or control animals | Size of spleen and iliac lymph node (in words) [2]: smaller in HMB-fed animals | Iliac lymph node weight ([2]; control 3.8, * p < .05): 3.3 g | Spleen weight ([2]; control 101): 94 g | Rumen destruction (in words) [3]: not subject to significant rumen destruction | Bacteria cultured in the bronchi (in words) [4]: fewer bacteria cultured in the bronchi | Bronchi, presence of bacteria ([4]; control 1.1): 0.8 | Nasal degeneration due to bordetella infection (in words) [5]: significant decrease in nasal degeneration due to bordetella infection | Severity of nasal turbinate lesions (in words) [5]: less severe lesions of the nasal turbinates | Nasal degeneration scores (0 = no lesion) ([5]; highest score 3 = moderate degeneration, control 1.6, * p < .05): 0.8 | Activation of immune function of T lymphocytes relative to KIC (in words) (T lymphocytes): markedly more effective for activating the immune function of T lymphocytes | activation at 1000 µM (lymphocytes): 78%
